In patent US20230055457A1, “CELL EXPANSION METHODS FOR PREVENTING CELL SENESCENCE AND PRESERVING THE THERAPEUTIC POTENCY OF HUMAN MESENCHYMAL STEM CELLS” (THE FLORIDA STATE UNIVERSITY RESEARCH FOUNDATION, INC., priority 2020, published 2023):
Entries after “also recorded” stand apart in the source; their conditions may differ.

Tests used:
senescent hMSCs [1] = assay: Intracellular NAD+ and NADH level of hMSCs; type: cell-based, human
Method: (§1) hMSCs at passage 2 were expanded and cultured in complete culture medium(CCM). Cells were grown to 70-80% confluence and then harvested by incubation with 0.25% trypsin/EDTA. Harvested cells were re-plated at a density of 2,000 cells/cm^2 and sub-cultured up to Passage 12 in a standard CO2 incubator. hMSC sat Passage 5 (P5) and passage 12 (P12) were used for experiments. Stem cell properties including senescence, stem cell gene, cell cycle, proliferation rate were determined. Gas chromatography-mass spectrometry (GC-MS) and seahorse flux analyzer were used for characterization of energy metabolism phenotype. Mitochondrial functions were assessed by mitochondrial mass, membrane potential, electron transport complex activity and biogenesis. NAD+/NADH and Sirt-1 and -3 level was also measured in P5 and P12 hMSCs. NAD+ precursor nicotinamide (NAM) was used in CCM to adjust NAD+ level intracellularly.

[2] = tested on: muscle stem cells (muscle-SCs) and hematopoietic stem cells (HSC); conditions: aged muscle-SCs and HSCs, restoring autophagy; cited from earlier work
senescent hMSCs [3] = assay: Basal autophagy by Cyto-ID Green flow cytometry; type: cell-based, human; conditions: senescent hMSCs with NAM treatment
Method: (§2) For autophagy measurement, aliquots of cell suspension were incubated with 20 μM Cyto-ID Green (Enzo Life Sciences, Farmingdale, N.Y.), a fluorescent dye that selectively labels accumulated autophagic vacuoles, at 37° C. for 30 minutes, and analyzed by flow cytometry (BD Biosciences, San Jose, Calif.). For mitophagy measurement, […]

senescent hMSCs [4] = assay: Colony forming unit-fibroblast (CFU-F) assay; type: cell-based, human; conditions: senescent hMSCs with NAM treatment
Method: Colony forming unit-fibroblast (CFU-F) were determined as following: hMSCs were harvested and re-plated at the density of 15 cells/cm2 on 60 cm2 culture dish and cultured for another 14 days in CCM. Cells were then stained with 20% crystal violet solution in methanol for 15 minutes at room temperature (RT) and washed with phosphate-buffered saline (PBS) wash, the numbers of individual colonies were counted manually.

senescent hMSCs [5] = assay: Cellular senescence by SA-β-Gal activity assay; type: cell-based, human; conditions: senescent hMSCs with NAM treatment
Method: Cellular senescence was evaluated by SA-β-Gal activity assay kit (Sigma, St. Louis, Mo.) as described in manufacture instructions.

senescent hMSCs [6] = assay: Mitophagy measurement; type: cell-based, human; conditions: senescent hMSCs with NAM treatment
Method: as §2

senescent hMSCs [7] = assay: Mitochondrial membrane potential (MMP), TMRM flow cytometry; type: cell-based, human; conditions: senescent hMSCs with NAM treatment
Method: For MMP measurement, trypsinized MSCs were washed by centrifugation in warm Hank's Balanced Salt Solution (HBSS). Cell suspension was incubated with tetramethylrhodamine, methyl ester (TMRM) (Molecular Probe, Eugene, Oreg.) at 37° C., washed with HBSS, and analyzed by flow cytometry (BD Biosciences, San Jose, Calif.).

hMSC = assay: Mitochondrial fitness of hMSCs; type: cell-based, human
Method: as §1

[8] = tested on: electron transport chain complex I; assay: Mitochondrial complex I (ETC-I) activity; type: cell-based, human; conditions: senescent hMSCs with NAM treatment
Method: hMSCs were centrifuged, re-suspended in DI water, and heated immediately in a boiling water bath for 15 minutes. The mixture was centrifuged and ATP containing supernatant was collected. Upon measurement, 10 μL of ATP solution was mixed with 100 μL of the luciferin-luciferase reagent, and the bioluminescent signal was measured using an Orion Microplate Luminometer (Bad Wildbad, Deutschland) after 15 min incubation at room temperature. Activity of mitochondrial complex I was determined using the Complex I Enzyme Activity Microplate Assay Kit (Abcam, Cambridge, Mass.) according to the kit instructions.

[9] = continuous supplement of NAM (1 mM), FIG. 17

NC(=O)c1ccc[n+]([C@@H]2O[C@H](CO)[C@@H](O)[C@H]2O)c1 [NR, nicotinamide riboside]
boosting NAD+/NADH ratio, NAM compared with NR (senescent hMSCs [1]; stem cells in culture, FIG. 16): no significant difference | boosting intracellular NAD+ level, NAM compared with NR (senescent hMSCs [1]; stem cells in culture, FIG. 16): no significant difference

NCCCCNCCCN [spermidine]
stem cell functions in vivo [2]: restored

NC(=O)c1cccnc1 [NAM, nicotinamide]
Basal autophagy level (senescent hMSCs [3]): restored; also recorded: increased | colony forming ability (senescent hMSCs [4]; in words): improved | colony forming ability of hMSCs (CFU-F) (senescent hMSCs [4]; control 3 CFU): 11 CFU | hMSC senescence, SA-β-gal activity (senescent hMSCs [5]): decreased; also recorded: reduced | hMSC cellular NAD+ level (senescent hMSCs [1]; [9]): maintains | Cellular NAD+ level (senescent hMSCs [1]; late passage hMSCs with culture-induced senescence, 96 h of NAM treatment): significantly increased; also recorded: potential improvement | boosting intracellular NAD+ level, NAM compared to NMN (senescent hMSCs [1]; stem cells in culture, FIG. 16): better | boosting intracellular NAD+ level, NAM compared with NR (senescent hMSCs [1]; stem cells in culture, FIG. 16): no significant difference | mitophagy (senescent hMSCs [6]): restored; also recorded: increased | mitochondrial membrane potential (MMP) (senescent hMSCs [7]): enhanced; also recorded: increased | mitochondrial fitness (hMSC; [9]): maintains | recovery of mitochondria (hMSC; senescent hMSCs, supplement of NAM): recovery | ETC-I activity [8]: enhanced; also recorded: increased

NC(=O)c1ccc[n+]([C@@H]2O[C@H](COP(=O)([O-])O)[C@@H](O)[C@H]2O)c1 [NMN, nicotinamide mononucleotide]
boosting intracellular NAD+ level, NAM compared to NMN (senescent hMSCs [1]; stem cells in culture, FIG. 16): NAM is better
